# Assays:
# [1] = target: T1, prostatic acid phosphatase (PAP) (Homo sapiens, UniProt P15309); assay: PAP secretion in VCaP cell culture with conjugates, ELISA; type: cell-based; conditions: overnight; for inhibition of PAP secretion: 0.1 mM or 1.0 mM in VCaP cell culture medium
# T1 construct: endogenous in cells; host or cells: VCaP (human prostate cancer cell line); in A3 also MC3T3 pre-osteoblasts, alone or in co-culture
# T1 sequence (P15309 33-386): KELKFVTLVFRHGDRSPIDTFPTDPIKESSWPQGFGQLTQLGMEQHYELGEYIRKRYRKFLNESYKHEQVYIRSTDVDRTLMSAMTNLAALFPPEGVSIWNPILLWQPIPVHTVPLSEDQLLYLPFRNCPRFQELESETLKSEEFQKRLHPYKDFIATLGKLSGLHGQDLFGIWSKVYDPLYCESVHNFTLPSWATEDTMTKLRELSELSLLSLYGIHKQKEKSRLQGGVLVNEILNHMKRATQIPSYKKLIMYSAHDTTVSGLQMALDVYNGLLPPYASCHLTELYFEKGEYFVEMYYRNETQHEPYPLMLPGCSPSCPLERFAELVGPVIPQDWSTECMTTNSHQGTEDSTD
# Protocol: Either the glyceric acid conjugate (i.e., N-Alendronyl-D-Glyceramide) (example 1, 0.1 mM or 1.0 mM) or the tartaric acid conjugate (i.e., N-Alendronyl-L-Tartaric Acid Monamide) (example 2, 0.1 mM or 1.0 mM) was added to VCaP cell culture medium, and incubated overnight. PAP secretion was measured using an ELISA assay.
# RAW cells [2] = assay: RAW cell differentiation, mean number of multinucleated cells; type: cell-based; conditions: tartrate (2004) for 2 days
# Protocol: (§1) In order to determine the effects of prostatic acid phosphatase (PAP) on osteoclast differentiation and activity, a series of co-culture experiments were performed in which pre-osteoclast cells (RAW cells) were co-cultured with either PAP-positive (PAP^+), VCaP cells or PAP-negative (PAP^−) (PC3) human prostate cancer (PCa) cells. RAW cells were counted in a hemacytometer on day 5.
# (§2) VCaP (PAP^+) and PC3 (PAP^−) cells (5×10^4 each) were seeded on inserts in RPMI or DMEM medium with 10% FBS. Pre-osteoclast, PRAW cells (5×10^4) were plated on the bottom in 12 well plates. After 2 days, medium was changed to serum-free DMEM with 0.1% BSA+/− tartrate (2004) for 2 days. Mean number of multinucleated cells (hallmark of osteoclast differentiation) was determined on day 5 by multiple field counts in 200× objective view.
# [3] = tested on: bone alkaline phosphatase (ALP); assay: Secretion of bone alkaline phosphatase (ALP), ELISA; type: cell-based; conditions: tartrate 20 μM, 7 days
# Protocol: (§3) The human prostate cancer cell line VCaP (originally derived from a vertebral metastases) and the pre-osteoblast cell line MC3T3, were used to for in vitro studies with tartrate. Each cell culture was grown in serum free medium either in single line or co-culture, and treated with or without tartrate (20 μM) for 7 days. Cell numbers were counted by a hemacytometer and the secretion of PAP and bone alkaline phosphatase (ALP) was measured using ELISA.
# Secretion of bone alkaline phosphatase (ALP) by pre-osteoblast cells is correlated with pre-osteoblast differentiation into mature osteoblasts cells. Accordingly, ALP secretion was measured to indirectly determine whether the inhibition of PAP secretion by tartrate also served to attenuate differentiation events. […] This effect was not seen in the single line MC3T3 and VCaP cell cultures.
# VCaP cells = assay: Growth of VCaP prostate cancer cells, single line or co-culture, counted by hemacytometer; type: cell-based, human; conditions: tartrate 20 μM, 7 days, serum free medium
# Protocol: as §3
# MC3T3 cells = assay: Growth of MC3T3 pre-osteoblast cells, single line or co-culture, counted by hemacytometer; type: cell-based; conditions: tartrate 20 μM, 7 days, serum free medium
# Protocol: as §3
# RAW (osteoclast) cells = assay: Osteoclast bone-resorbing activity, pit formation on osteologic discs; type: cell-based; conditions: tartrate 20 μM, 7 days, RANKL and MCSF
# Protocol: The effect of PAP on osteoclast bone-resorbing activity was measured by assaying pit formation when osteoclasts were cultured on bone matrix (osteologic discs). RAW (osteoclast) cells (2×10^4 cells), PC3 (PAP^−) cells (2×10^4 cells), and VCaP (PAP^+) cells (3×10^4 cells) were plated, alone or in combination, on calcium hydroxyapatite-coated osteologic discs in DMEM medium with 10% FBS for 7 days+/−tartrate (20 μM). All cultures were treated with RANKL ([…]) and MCSF ([…]). On day 7, cells were washed and discs stained with von Kossa to visualize the calcium matrix and pits (which indicate bone resorption by the RAW osteoclast cells).
# PAP = target: T2, PAP (Homo sapiens, UniProt P15309); conditions: see U.S. Pat. No. 5,763,490; cited from earlier work
# T2 sequence (P15309 33-386): T1 sequence (P15309 33-386)
# RAW cells [4] = assay: RAW pre-osteoclast cell growth in co-culture experiments, hemacytometer; type: cell-based; conditions: tartrate (2004) for 2 days
# Protocol: as §1, §2
# bone acid phosphatase = target: T3, bone acid phosphatase (Homo sapiens, UniProt P13686); conditions: cited from earlier work
# T3 sequence (P13686 22-325): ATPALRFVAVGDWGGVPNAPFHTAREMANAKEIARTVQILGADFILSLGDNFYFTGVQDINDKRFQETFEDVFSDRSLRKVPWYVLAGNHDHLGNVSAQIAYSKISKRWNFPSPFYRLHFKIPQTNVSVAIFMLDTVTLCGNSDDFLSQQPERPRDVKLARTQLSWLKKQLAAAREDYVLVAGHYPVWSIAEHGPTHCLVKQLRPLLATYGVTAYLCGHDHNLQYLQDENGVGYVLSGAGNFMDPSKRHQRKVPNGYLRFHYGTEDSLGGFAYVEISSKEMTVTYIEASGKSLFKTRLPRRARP
# [5] = target: T1, prostatic acid phosphatase (PAP); assay: Secretion of PAP from MC3T3 and VCaP single line and co-cultures, ELISA; type: cell-based; conditions: tartrate 20 μM, 7 days
# Protocol: as §3
# [6] = tested on: prostatic acid phosphatase (PAP); assay: as above; type: cell-based, human; conditions: tartrate 20 μM, 7 days, MC3T3 cells (very low PAP levels)
# Protocol: as §3
smiles,measurement,setting,value
"O=C(NCCCC(O)(P(=O)(O)O)P(=O)(O)O)[C@H](O)CO [example 1, N-Alendronyl-D-Glyceramide]",inhibition of PAP secretion,[1],significantly inhibited
same,effectiveness as a PAP inhibitor compared with tartrate alone,[1]; VCaP cell culture medium,as effective as tartrate alone
"O=C(O)C(O)[C@H](O)C(=O)NCCCC(O)(P(=O)(O)O)P(=O)(O)O (stereo partly drawn) [example 2, N-Alendronyl-L-Tartaric Acid Monamide]",inhibition of PAP secretion,[1],inhibit PAP secretion
"O=C(O)[C@H](O)[C@@H](O)C(=O)O [tartrate, L-tartrate]",effect on differentiation of RAW cells alone,"RAW cells [2]; multinucleated cells on day 5, RAW alone",did not have a significant effect
same,effect on differentiation of RAW cells co-cultured with PC3 cells,"RAW cells [2]; multinucleated cells on day 5, co-culture with PC3",did not have a significant effect
same,effect on RAW cell differentiation when co-cultured with VCaP,"RAW cells [2]; multinucleated cells on day 5, co-culture with VCaP, p<0.01",significantly inhibited
same,bone alkaline phosphatase secretion by MC3T3 cells in co-culture with VCaP cells,[3]; co-culture with VCaP,significantly inhibited
same,"bone alkaline phosphatase secretion, single line MC3T3 cell culture",[3]; single line MC3T3,not seen
same,"bone alkaline phosphatase secretion, single line VCaP cell culture",[3]; single line VCaP,not seen
same,effect on VCaP cell growth when co-cultured with MC3T3 cells,VCaP cells; co-culture with MC3T3,did not have a significant effect
same,effect on growth of VCaP single line cell culture,VCaP cells; single line,did not have a significant effect
same,effect on growth of MC3T3 cells co-cultured with VCaP cells,"MC3T3 cells; co-culture with VCaP, p<0.01",significantly inhibited
same,effect on growth of MC3T3 single line cell culture,MC3T3 cells; single line,did not have a significant effect
same,"decrease of pit formation, RAW cells co-cultured with VCaP",RAW (osteoclast) cells,50%
same,"effect on number of pits, RAW cells co-cultured with PC3 cells",RAW (osteoclast) cells,no significant effect
same,inhibition of PAP,PAP,inhibited
same,effect on growth of RAW cells co-cultured with PC3 cells,"RAW cells [4]; counted day 5, co-culture with PC3 (PAP-)",did not have a significant effect
same,effect on growth of RAW cells co-cultured with VCaP cells,"RAW cells [4]; counted day 5, co-culture with VCaP (PAP+), p<0.01",significantly inhibited
same,effect on growth of RAW cells alone,"RAW cells [4]; serum-free DMEM with 0.1% BSA, counted day 5, RAW alone",did not have a significant effect
same,inhibition of bone acid phosphatase,bone acid phosphatase,is not
same,prostatic acid phosphatase secretion by VCaP cells grown alone,[5]; VCaP alone,significantly inhibited
same,prostatic acid phosphatase secretion by VCaP cells in co-culture with MC3T3 cells,[5]; co-culture with MC3T3,significantly inhibited
same,PAP secretion by MC3T3 cells,[6],did not inhibit
